The values below come from patent US10899738B2 (THE REGENTS OF THE UNIVERSITY OF MICHIGAN, priority 2016, dated 2021).

Experiment [1] in a line: Cell growth inhibition, CellTiter-Glo Luminescent Cell Viability Assay. It is filed as cell-based. On the procedure: Cell growth inhibitory activity of representative menin inhibitors was determined using CellTiter-Glo® Luminescent Cell Viability Assay. Cells were seeded in 384-well white opaque cell culture plates at a density of 2,000 cells/well with serially diluted compounds and incubated at 37° C. in an atmosphere of 95% air and 5% CO2 for 4 days. Cell viability was determined using the CellTiter-Glo® Luminescent Cell Viability Assay Kit (Promega, Madison, Wis.) according to the manufacture's instruction. Briefly, a volume of CellTiter-Glo® Reagent equal to the volume of cell culture medium was added to each well, and then the plates were incubated at room temperature for 10-20 minutes. The luminescent signal was measured using a Tecan Infinite M1000 multimode microplate reader (Tecan, Morrisville, N.C.). The half maximal inhibitory concentration (IC50) was calculated using the GraphPad Prism 5 software (GraphPad Software, La Jolla, Calif.).

In the next experiment the target is menin protein (Homo sapiens (Human), UniProt O00255). The experiment can be described thus: biochemical. It is filed as binding. Conditions: FP competitive binding; menin protein 4 nM, FAM-MM2 probe 2 nM; read-out: Menin Binding Affinity IC50. An outline of the steps: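 Competitive fluorescence polarization assay using FAM-labelled MLL1 peptide probe FAM-MM2 (2 nM final) preincubated with menin (4 nM final) in PBS with 0.02% bovine γ-globulin, 4% DMSO and 0.01% Triton X-100. Compounds were added and incubated 30 min at room temperature. IC50 came from nonlinear regression of competition curves, with Ki also derived.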
menin protein, sequence (O00255 whole entry): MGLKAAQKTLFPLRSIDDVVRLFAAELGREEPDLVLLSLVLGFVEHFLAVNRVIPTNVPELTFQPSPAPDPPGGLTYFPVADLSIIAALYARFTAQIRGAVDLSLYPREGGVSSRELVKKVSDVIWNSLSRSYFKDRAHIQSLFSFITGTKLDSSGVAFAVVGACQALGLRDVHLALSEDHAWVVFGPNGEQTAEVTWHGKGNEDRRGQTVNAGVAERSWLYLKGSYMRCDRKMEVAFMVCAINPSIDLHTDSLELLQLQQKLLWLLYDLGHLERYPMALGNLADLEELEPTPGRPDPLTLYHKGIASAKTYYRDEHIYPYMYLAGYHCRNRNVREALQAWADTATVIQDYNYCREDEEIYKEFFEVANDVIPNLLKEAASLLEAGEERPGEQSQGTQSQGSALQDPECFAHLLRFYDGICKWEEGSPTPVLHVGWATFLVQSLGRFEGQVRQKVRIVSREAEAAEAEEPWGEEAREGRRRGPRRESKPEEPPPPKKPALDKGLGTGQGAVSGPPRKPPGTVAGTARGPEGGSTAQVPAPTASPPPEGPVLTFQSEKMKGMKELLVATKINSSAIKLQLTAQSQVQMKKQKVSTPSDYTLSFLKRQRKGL

Where [2] appears, read: MOLM-13, 96 h, MOLM13 cells, 4 days, CellTiter-Glo, read-out: Cell Growth Inhibition IC50 (μM) MOLM13.
Setting [3] is: MV4-11, 96 h, MV4, 11 cells, 4 days, CellTiter-Glo, read-out: Cell Growth Inhibition IC50 (μM) MV4, 11.
Where [4] appears, read: MOLM-13, 96 h, read-out: Cell Growth Inhibition IC50 (μM) MOLM13, MOLM13 cells, 4 days, CellTiter-Glo.
[5] abbreviates: MV4-11, 96 h, read-out: Cell Growth Inhibition IC50 (μM) MV4, 11, MV4, 11 cells, 4 days, CellTiter-Glo.

Read-outs that look alike come from different tables or passages of the source. Bounds are passed on as bounds.

One may read the IC50 as the concentration at which inhibition is half-maximal.

Take `O=S(=O)(c1ccncc1)c1ccc(N2CC(CN3CCC(C4(C5CCCC5)CN(C5CCC5)Cc5ccccc54)CC3)C2)cc1` (stereo not shown) [compound 49, 2-cyclobutyl-4-cyclopentyl-4-(1-((1-(4-(pyridin-4-ylsulfonyl)phenyl)azetidin-3-yl)methyl)piperidin-4-yl)-1,2,3,4-tetrahydroisoquinoline]: the IC50 in experiment [1] (setting [2]) was determined as 4 µM; in experiment [1] (setting [3]), 0.898 µM; on menin protein, 9 nM.

With `CCN1Cc2ccccc2C(C2CCCC2)(C2CCN(CC3CN(c4ccc(S(=O)(=O)C5CC5)cc4)C3)C(C)C2)C1` (stereo not shown) [compound 94, 4-cyclopentyl-4-(1-((1-(4-(cyclopropylsulfonyl)phenyl)azetidin-3-yl)methyl)-2-methylpiperidin-4-yl)-2-ethyl-1,2,3,4-tetrahydroisoquinoline], the figures for the half-maximal inhibitory concentration (IC50) (in experiment [1] (setting [2]); in experiment [1] (setting [3]); on menin protein) were 2.3 µM, 2 µM and 29 nM, respectively.

On to `O=S(=O)(c1ccc(N2CC(CN3CCC(C4(C5CCCC5)NCCc5ccccc54)CC3)C2)cc1)C1CCCC1` (stereo not shown) [compound 146, 1-cyclopentyl-1-(1-((1-(4-(cyclopentylsulfonyl)phenyl)azetidin-3-yl)methyl)piperidin-4-yl)-1,2,3,4-tetrahydroisoquinoline], for which the 50% inhibitory concentration (IC50) in experiment [1] (setting [2]) turned out to be 1.9 ± 1.2 µM; in experiment [1] (setting [3]), 0.785 ± 0.247 µM; on menin protein, 13 nM.

For `CCN1Cc2ccccc2C(C2CCCC2)(C2CCN(CC3CN(c4ccc(S(=O)(=O)c5ccc(C(=O)O)cc5)cc4)C3)CC2)C1` (stereo not shown) [compound 164, 4-((4-(3-((4-(4-cyclopentyl-2-ethyl-1,2,3,4-tetrahydroisoquinolin-4-yl)piperidin-1-yl)methyl)azetidin-1-yl)phenyl)sulfonyl)benzoic acid], the IC50 in experiment [1] (setting [2]) was determined as 0.72 µM; in experiment [1] (setting [3]) it was 0.27 µM; on menin protein, 8 nM.

As to `COC(=O)N[C@H]1CCC[C@@H]1C(C#N)(c1ccccc1)C1CCN(CCC#Cc2ccc(C#N)cc2)CC1` (mixture of isomers) [compound 404, methyl rac-((1S,2R)-2-(cyano(1-(4-(4-cyanophenyl)but-3-yn-1-yl)piperidin-4-yl)(phenyl)methyl)cyclopentyl) carbamate], the concentration for half-maximal inhibition (IC50) in experiment [1] (setting [4]) was > 10 µM; in experiment [1] (setting [5]), > 10 µM; on menin protein, 212 nM.

Consider `N#Cc1ccc(N2CCC(CN3CCC(C4(C5CCCC5)NCCc5ccccc54)CC3)C2)cc1` (stereo not shown) [compound 113, 4-(3-((4-(1-cyclopentyl-1,2,3,4-tetrahydroisoquinolin-1-yl)piperidin-1-yl)methyl)pyrrolidin-1-yl)benzonitrile], for which the 50% inhibitory concentration (IC50) in experiment [1] (setting [2]) is 2.4 µM; in experiment [1] (setting [3]), 1.6 µM; on menin protein, 67 nM.

On to `CN1Cc2ccccc2C(C2CCCC2)(C2CCN(CC3CN(c4ccc(S(=O)(=O)C5CC5)cc4)C3)CC2)C1` (stereo not shown) [compound 70, 4-cyclopentyl-4-(1-((1-(4-(cyclopropylsulfonyl)phenyl)azetidin-3-yl)methyl)piperidin-4-yl)-2-methyl-1,2,3,4-tetrahydroisoquinoline], for which the half-maximal inhibitory concentration (IC50) turned out to be 3.5 µM in experiment [1] (setting [2]), 2.2 µM in experiment [1] (setting [3]) and 12 nM on menin protein.

Take `CNC(=O)O[C@H]1CCC[C@@H]1C(C#N)(c1ccccc1)C1CCN(C2CCN(c3ccc(S(=O)(=O)c4ccccc4)cc3)CC2)CC1` (mixture of isomers) [compound 234, rac-(1S,2R)-2-(cyano(phenyl)(1′-(4-(phenylsulfonyl)phenyl)-[1,4′-bipiperidin]-4-yl)methyl)cyclopentyl methylcarbamate]: the IC50 in experiment [1] (setting [4]) stood at 6.41 µM; in experiment [1] (setting [5]), 1.11 µM; on menin protein, 50 nM.

Turning to `CNC(=O)N[C@@H]1CCC[C@H]1C1(C2CCN(CC3CN(c4ccc(S(=O)(=O)c5ccncc5)cc4)C3)CC2)CN(C)Cc2ccccc21` (mixture of isomers) [compound 278, rac-1-methyl-3-((1R,2S)-2-(2-methyl-4-(1-((1-(4-(pyridin-4-ylsulfonyl)phenyl)azetidin-3-yl)methyl)piperidin-4-yl)-1,2,3,4-tetrahydroisoquinolin-4-yl)cyclopentyl)urea], the half-inhibitory concentration (IC50) in experiment [1] (setting [4]) stood at 2.12 µM; in experiment [1] (setting [5]), 2.27 µM; at menin protein it was 296 nM.

Regarding `CCN1Cc2ccccc2C(C2CCCC2)(C2CCN(CC3CN(c4ccc(S(=O)(=O)C(F)(F)F)cc4)C3)CC2)C1` (stereo not shown) [compound 145, 4-cyclopentyl-2-ethyl-4-(1-((1-(4-((trifluoromethyl)sulfonyl)phenyl)azetidin-3-yl)methyl)piperidin-4-yl)-1,2,3,4-tetrahydroisoquinoline], the half-inhibitory concentration (IC50) turned out to be 3.3 ± 0.5 µM in experiment [1] (setting [2]), 1.6 ± 0.8 µM in experiment [1] (setting [3]) and 15 nM on menin protein.

For the compound `COC(=O)N[C@H]1CCC[C@@H]1C(C#N)(c1ccccc1)C1CCN(CC2CN(c3ccc(C#N)cc3)C2)CC1` (mixture of isomers) [compound 400, methyl rac-((1S,2R)-2-(cyano(1-((1-(4-cyanophenyl)azetidin-3-yl)methyl)piperidin-4-yl)(phenyl)methyl)cyclopentyl) carbamate], the 50% inhibitory concentration (IC50) in experiment [1] (setting [2]) is 6.11 µM; in experiment [1] (setting [3]) it was 0.83 µM.

In the case of `COC(=O)N[C@H]1CCC[C@@H]1[C@](C#N)(c1ccccc1)C1CCN(CC2CN(c3ccc(S(=O)(=O)C(F)(F)F)cc3)C2)CC1` [Cpd. No. 403, methyl ((1S,2R)-2-((S)-cyano(phenyl)(1-((1-(4-((trifluoromethyl)sulfonyl)phenyl)azetidin-3-yl)methyl)piperidin-4-yl)methyl)cyclopentyl)carbamate], the values for the half-maximal inhibitory concentration (IC50) in experiment [1] (setting [4]) and in experiment [1] (setting [5]) were 1.3 µM and 0.19 µM, respectively.

With `N#Cc1ccc(OCCCN2CCC(C3(C4CCCC4)NCCc4ccccc43)CC2)cc1` (stereo not shown) [compound 27, 4-(3-(4-(1-cyclopentyl-1,2,3,4-tetrahydroisoquinolin-1-yl)piperidin-1-yl)propoxy)benzonitrile], the half-maximal inhibitory concentration (IC50) in experiment [1] (MOLM-13, 96 h, read-out: Cell Growth Inhibition IC50 (μM) MOLM13) turned out to be 3.6 µM; in experiment [1] (MV4-11, 96 h, read-out: Cell Growth Inhibition IC50 (μM) MV4, 11), 0.9 µM.

As for `COC(=O)N[C@H]1CCC[C@@H]1C(C#N)(c1ccccc1)C1CCN(CC2CN(c3ccc(S(=O)(=O)C(F)(F)F)cc3)C2)CC1` (mixture of isomers) [compound 393, methyl rac-((1S,2R)-2-(cyano(phenyl)(1-((1-(4-((trifluoromethyl)sulfonyl)phenyl)azetidin-3-yl)methyl)piperidin-4-yl)methyl)cyclopentyl) carbamate], the figures for the half-inhibitory concentration (IC50) in experiment [1] (setting [4]) and in experiment [1] (setting [5]) were 0.88 µM and 0.25 µM, respectively.

With `N#Cc1ccc(OCCCN2CCC(C3(C4CCCC4)NCCc4c(F)cccc43)CC2)cc1` (stereo not shown) [compound 29, 4-(3-(4-(1-cyclopentyl-5-fluoro-1,2,3,4-tetrahydroisoquinolin-1-yl)piperidin-1-yl)propoxy)benzonitrile], the IC50 at menin protein was found to be 91 nM.

Turning to `CNC(=O)C[C@H]1CCC[C@@H]1C(C#N)(c1ccccc1)C1CCN(CC2CN(c3ccc(S(=O)(=O)c4ccncc4)cc3)C2)CC1` (mixture of isomers) [compound 340, rac-2-((1R,2S)-2-(cyano(phenyl)(1-((1-(4-(pyridin-4-ylsulfonyl)phenyl)azetidin-3-yl)methyl)piperidin-4-yl)methyl)cyclopentyl)-N-methylacetamide], at menin protein, the half-maximal inhibitory concentration (IC50) stood at 2900 nM.
